From ChEMBL document CHEMBL3430912, “GSK Tres Cantos Anti-Kinetoplastid Screening (TCAKS) Data”
pIC50: −log10 of the molar value.

Tests used:
[1] = test system: Leishmania donovani; assay: (§1) GSK_TCAKS: pIC50 Leishmania donovani Imaging: Infected Macrophages. Assay plates (384-well) were prepared by adding 250nL of compound to each well. For single shot assay, the final compound concentration was 5 uM. […] Automated image analysis was performed with a script developed on Acapella High Content Imaging and Analysis Software (PerkinElmer). Output: Percent of infected macrophage cells were reported for each well.; type: functional, organism-based, Homo sapiens; settings: THP-1
[2] = test system: Trypanosoma cruzi; assay: (§2) GSK_TCAKS: pIC50 H2C9 Imaging: H9c2 Host Cardiomyocytes. […] Cells were then washed once with PBS before infection. T. cruzi trypomastigotes, collected at days 5 to 8 after infection from LLC-MK2 parasite infected cultures, were allowed to swim out for 4h at 37C from a centrifuged pellet (2,500 rpm/10 min/room temperature). Trypomastigotes were then collected and counted in a CASY Cell Counter. Trypomastigotes, in supplemented DMEM, were added to H9c2 cultures in a multiplicity of infection of 1 and incubated for 18 h. Cells were washed once with PBS before incubation of the infected H9c2 monolayer with trypsin (Life-Technologies) to detach cells from the flask. Cells were counted in a CASY Cell Counter using a 150 um capillary and their density set at 5 * 10^4 cells per mL in supplemented assay DMEM. Infected H9c2 were dispensed into 384-well poly-lysine coated assay plates at 50uL per well using a Multidrop Combi dispenser. After seeding them, the plates were incubated at 37C, 5% CO2 for 72h. Cultures were then fixed and stained by addition of 50 uL of a solution containing 8% formaldehyde and 4 uM DRAQ5 DNA dye (BioStatus, UK) per well. […] Five images were collected per well for reliable statistical analysis. Automated image analysis was performed with a script developed on Acapella High Content Imaging and Analysis Software (PerkinElmer). Output: Number of H9c2 Host Cardiomyocytes nuclei to determine drug-related cytotoxicity.; type: functional, organism-based, Rattus norvegicus; settings: H9c2, 4 h
[3] = test system: Leishmania donovani; assay: as §1, with “THP-1 Host” for “Infected”, “THP-1 cell count” for “Percent of infected macrophage cells”; type: functional, organism-based, Homo sapiens
[4] = molecular target: Sterol 14-alpha demethylase (Trypanosoma cruzi (strain CL Brener), UniProt Q7Z1V1); assay: GSK_TCAKS: pIC50 CYP51 from Trypanosoma cruzi.; type: functional
Sequence of Sterol 14-alpha demethylase (Q7Z1V1 whole entry): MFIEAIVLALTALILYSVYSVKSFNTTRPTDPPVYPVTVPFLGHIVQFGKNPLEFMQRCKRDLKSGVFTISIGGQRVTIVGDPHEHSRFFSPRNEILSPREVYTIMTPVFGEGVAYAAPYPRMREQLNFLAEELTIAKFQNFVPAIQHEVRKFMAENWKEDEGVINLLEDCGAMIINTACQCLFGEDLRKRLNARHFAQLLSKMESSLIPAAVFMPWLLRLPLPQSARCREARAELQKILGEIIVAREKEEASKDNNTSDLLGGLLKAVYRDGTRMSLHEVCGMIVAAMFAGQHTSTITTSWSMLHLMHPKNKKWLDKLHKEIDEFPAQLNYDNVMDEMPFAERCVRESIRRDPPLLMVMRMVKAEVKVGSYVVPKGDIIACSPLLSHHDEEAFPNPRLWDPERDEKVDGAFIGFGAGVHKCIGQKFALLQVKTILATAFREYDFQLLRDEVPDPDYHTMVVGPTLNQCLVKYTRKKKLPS

[5] = test system: Trypanosoma cruzi; assay: GSK_TCAKS: pIC50 Trypanosoma cruzi viability assay using beta-GAL activity. This assay was run at single shot at 5uM compound concentration per well. The biological reagents consisted of NIH-3T3 host cells and trypomastigotes parasitic cells; both cell types were set to a 3.3 * 10^5 cells/mL dilution in assay DMEM by means of a CASY cell counter device using a 60um capillary. 6 uL of the mixture were dispensed per well (about 1 * 10^3 host-cells and 1 * 10^3 parasites) with a Multidrop Combi dispenser. […] In all wells, the percentage of DMSO never exceeded 0.5%. Plates incubated for four days at 37C, 5% CO2. The substrate used for the assay fluorescence intensity (FLINT) readout was resorufin-beta-D-galactopiranoside (Sigma-Aldrich) at 5uM per well. It was diluted in PBS supplemented with the soft detergent Igepal (Fluka).; type: functional, organism-based, Mus musculus; settings: Tulahuen, NIH3T3
[6] = GSK_TCAKS: pIC50 HepG2 human cell line viability assay using luminiscence. […] Seeding density was checked to ensure that new mono-layers were not more than 50% confluent at the time of harvesting. Cell suspension was added to 500 mL of the same medium at a final density of 1.2 * 10^5 cells/mL. This cell suspension was dispensed (25 uL, 3000 cells per well) into 384-well clear-bottom plates using a Multidrop Combi dispenser. Prior to addition of the cell suspension, the screening compounds (250 nL) were pre-dispensed into the plates with an Echo liquid handler. Plates were incubated for 48 h at 37C, 5% CO2. After incubation, plates equilibrated at room temperature for 30 min before proceeding to develop the luminescent signal. The signal developer, CellTiter-Glo Reagent, was allowed to equilibrate at room temperature for 30 min and added to the plates (25uL per well) using a Multidrop Combi dispenser. Plates were left for 10 min at room temperature for stabilization and then read using a ViewLux.; type: toxicity, cell-based
[7] = test system: Trypanosoma brucei brucei; assay: GSK_TCAKS: pIC50 Trypanosoma brucei viability assay using luminiscence. Assay plates (1536-well) were prepared. T. brucei cultures were harvested and counted in a CASY cell counter. A parasite suspension was prepared at a final concentration of 5 * 10^4 cells/mL in complete HMI9 medium and 6uL was dispensed to all wells containing compounds using a Multidrop Combi dispenser. 6uL of HMI9 media with 0.4% DMSO were dispensed to control columns. Plates were incubated for 24 h at 37C, 5% CO2 then tempered for 10 min at room temperature. ATP content was quantified by adding 4 uL of CellTiter-Glo Reagent (Promega) according to the manufacturer's instructions. Luminescence was measured using a ViewLux.; type: functional, organism-based; settings: Lister 427, CASY
[8] = test system: Leishmania donovani; assay: as §1, with “Amastigotes/Macrophages.” for “Infected Macrophages.”, “Average number” for “Percent”, “amastigotes per” for “infected”, “cell” for “cells”; type: functional, organism-based, Homo sapiens; settings: THP-1
[9] = test system: Leishmania donovani; assay: GSK_TCAKS: pIC50 Leishmania donovani viability assay using fluorescence intensity. Assay plates (1536-well) were prepared by adding 30nL per well of compound. For single shot assay, the final compound concentration was 5uM. […] Briefly, eGFP LdBOB axenic amastigotes were harvested, fixed and counted in a CASY cell counter (Roche-Applied Science). A final concentration of 1.5 * 10^5 cells per well were prepared in amastigote media containing 500 U/mL penicillin/streptomycin (Invitrogen) and 6uL was dispensed to each experimental well using a Multidrop Combi dispenser (Thermo Scientific). 6uL of assay media was dispensed to control columns used as reference for 100% compound response. Following incubation for 72 h at 37C, 5% CO2, 2 uL of resazurin was added to each well at a final concentration of 0.5 mM in phosphate buffered saline (PBS) with IGEPAL (Sigma-Aldrich), 0.05% (v/v).; type: functional, organism-based
[10] = test system: Trypanosoma brucei brucei; assay: GSK_TCAKS: pIC50 Trypanosoma brucei viability assay using fluorescence intensity. Assay plates (1536-well) were prepared by dispensing 25nL of compound solution per well using an Echo acoustic dispenser (Labcyte).; type: functional, organism-based; settings: Lister 427, 2 h
[11] = test system: Trypanosoma cruzi; assay: as §2, with “Trypanosoma cruzi” for “H2C9”, “Amastigotes/Cell.” for “H9c2 Host Cardiomyocytes.”, “number” for “Number”, “amastigotes per cell as infection level measurement.” for “H9c2 Host Cardiomyocytes nuclei to determine drug-related cytotoxicity.”; type: functional, organism-based, Rattus norvegicus; settings: H9c2, 4 h
[12] = test system: Trypanosoma cruzi; assay: as §2, with “Trypanosoma cruzi” for “H2C9”, “Infected Cells.” for “H9c2 Host Cardiomyocytes.”, “percentage” for “Number”, “infected cells per well as a second infection marker.” for “H9c2 Host Cardiomyocytes nuclei to determine drug-related cytotoxicity.”; type: functional, organism-based, Rattus norvegicus; settings: H9c2, 4 h

Row | SMILES | pIC50 [1] | pIC50 [2] | pIC50 [3] | pIC50 [4] | pIC50 [5] | IC50 at 48 h [6] [µM] | pIC50 [7] | pIC50 [8] | pIC50 [9] | pIC50 [10] | pIC50 [11] | pIC50 [12]
1 | O=C(NCCc1csc(-c2ccc(F)cc2)n1)c1ccco1 | < 4.30 | < 4.30 | < 4.30 | < 4.00 | 5.65 | > 100 | 6.30 | < 4.30 | < 4.30 | 6.40 | 5.90 | 5.80
2 | Cc1nn(-c2nc(N)nc(-c3ccccn3)n2)c(N)c1-c1ccccc1 | 5.50 | 4.90 | 4.70 | < 4.00 | 5.40 | 63.1 | 5.20 | 5.70 | 5.30 | 5.70 | 5.90 | 5.30
3 | Nc1nc(-c2ccccn2)nc(-n2nc(-c3ccccc3)cc2N)n1 | 6.10 | 5.70 | 5.00 | < 4.00 | 6.30 | 10 | 5.50 | 6.10 | 5.70 | 6.00 | 6.50 | 5.60
4 | CC(C)(C)C(=O)NCCc1csc(-c2ccc(F)cc2)n1 | < 4.30 | < 4.30 | < 4.30 | 4.10 | 5.45 | > 100 | 6.10 | < 4.30 | < 4.30 | 6.20 | 5.60 | 5.50
5 | COCc1cnc2c(c1SCc1c(F)cccc1Cl)c(=O)n(C)c(=O)n2C | 5.30 | < 4.30 | < 4.30 | 4.60 | < 4.30 | > 100 | < 4.40 | 5.30 | 5.40 | 5.40 | 5.60 | 5.40
6 | CNC(=O)C1Cc2ccccc2N1C(=O)COc1cccc(OC)c1 (stereo unspecified) | < 4.30 | < 4.30 | < 4.30 | 4.00 | < 4.30 | > 100 | 6.00 | < 4.30 | < 4.30 | 6.20 | < 4.30 | < 4.30
7 | CCOc1ccc(OCC(=O)N2c3ccccc3CC2C(=O)NC)cc1 (stereo unspecified) | < 4.30 | < 4.30 | < 4.30 | < 4.00 | < 4.30 | > 100 | 6.10 | < 4.30 | < 4.30 | 6.30 | < 4.30 | < 4.30
8 | CNC(=O)C1Cc2ccccc2N1C(=O)Cc1ccccc1 (stereo unspecified) | < 4.30 | < 4.30 | < 4.30 | < 4.00 | < 4.30 | > 100 | 6.00 | < 4.30 | < 4.30 | 6.20 | < 4.30 | < 4.30
9 | CNC(=O)C1Cc2ccccc2N1C(=O)Cc1ccc(OC)cc1 (stereo unspecified) | 5.10 | < 4.30 | 5.10 | < 4.00 | < 4.30 | > 100 | 6.30 | 4.90 | < 4.30 | 6.40 | < 4.30 | < 4.30
10 | CCOc1ccc(CC(=O)N2c3ccccc3CC2C(=O)NC)cc1 (stereo unspecified) | < 4.30 | < 4.30 | < 4.30 | < 4.00 | < 4.30 | > 100 | 6.30 | < 4.30 | < 4.30 | 6.30 | < 4.30 | < 4.30
11 | O=C(CSc1nnc2ccc(-c3ccc(F)cc3)nn12)N1CCCCC1 | < 4.30 | < 4.30 | 5.20 | < 4.00 | 5.60 | > 100 | 6.30 | < 4.30 | < 4.30 | 6.40 | 6.00 | 5.70
12 | CC(C)(C)CC(=O)NCCc1csc(-c2ccc(F)cc2)n1 | 4.50 | < 4.30 | 4.80 | 4.70 | 5.90 | > 100 | 6.30 | 4.80 | < 4.30 | 6.20 | 6.10 | 6.00
13 | O=C(NC(CO)c1ccc(F)cc1)c1ccc(-c2c[nH]c3ncccc23)s1 (stereo unspecified) | 4.60 | 5.40 | 5.00 | 5.90 | 5.00 | 39.8 | 6.10 | 4.70 | 4.50 | 6.60 | 4.90 | 4.80
14 | Nc1nc(-c2ccccc2)cc(-c2nc3cccnc3[nH]2)n1 | 5.60 | 4.90 | < 4.30 | < 4.00 | 5.50 | 39.8 | 4.80 | 5.60 | 5.40 | 5.00 | 5.80 | 5.70
15 | CN(C)S(=O)(=O)c1cccc(CSc2nnc(-c3ccc4c(c3)OCO4)o2)c1 | 5.70 | < 4.30 | < 4.30 | 4.90 | 6.30 | > 100 | < 4.40 | 6.20 | 6.00 | 4.50 | 7.30 | 7.00
16 | N#CN1CC[C@@H](NC(=O)Nc2ccccc2Oc2ccccc2)C1 | 5.30 | 4.70 | 4.60 | < 4.00 | 5.30 | 39.8 | 5.10 | 5.40 | 5.50 | 6.00 | 5.30 | 5.40
17 | CCc1ccc2nc(NC(=O)c3cc(N4CCOCC4)ccn3)sc2c1 | 5.90 | 4.40 | 5.00 | < 4.00 | 5.60 | > 100 | 6.00 | 6.10 | 5.70 | 6.30 | 6.30 | 6.10
18 | Nc1nonc1-c1nc2cncc(C(=O)N3CC[C@H](N)C3)c2n1CC1CC1 | 4.70 | < 4.30 | 4.90 | 4.90 | < 4.30 | > 100 | 6.10 | 4.40 | < 4.30 | 6.20 | 4.90 | < 4.30
